From paper PMC4741274 (Neurochemical research, 2015)
Values joined by “and” are separate entries in the source; they are usually repeats but may differ in a detail not shown here. Identical values can stand only once. “Also recorded” adds a separate entry of the source. Like-named read-outs stand apart in the source and are kept apart here.

What was measured:
α4β2 nAChR [1] = target: T1, α4β2 nAChR (Rattus norvegicus, UniProt P09483+P12390); type: binding; conditions: for Ki: read-out: Ki α4β2, vs 500pM [3H]EB, HEK cells, Mean ± SEM of three
α3β2 nAChR = α3β2 nAChR (Rattus norvegicus, UniProt P04757+P12390); assay: Competition binding vs 500 pM [3H]EB, stably transfected HEK cells
[2] = tested on: IMR-32 cells (ganglionic-like α3β4 nAChRs); conditions: 86Rb+ efflux, ref [22]; cited from earlier work
α2β4 nAChR [3] = target: T2, α2β4 nAChR (Rattus norvegicus, UniProt P12389+P12392); assay: Competition binding vs 500 pM [3H]EB, stably transfected HEK cells
[4] = tested on: Human α4β2 nAChRs expressed in K177 cells; conditions: 86Rb+ efflux, ref [22]; cited from earlier work
rat α3β4 nAChRs = rat α3β4 nAChRs (Rattus norvegicus, UniProt P04757+P12392); assay: cell-based; type: cell-based; conditions: for Agonist activity (in words): α3β4 nAChRs, 86Rb+ efflux
α2β2 nAChR = α2β2 nAChR (Rattus norvegicus, UniProt P12389+P12390); assay: Competition binding vs 500 pM [3H]EB, stably transfected HEK cells
[5] = tested on: α4β2* nAChRs from rat forebrain tissue (FB); assay: biochemical; type: binding; conditions: Ki α3β4 transfected cells vs rat forebrain (FB) α4β2
[6] = target: α4β2* nAChRs from rat forebrain tissue (FB) (Rattus norvegicus, UniProt P09483+P12390); assay: biochemical; type: binding
α7 nAChR [7] = target: T3, α7 nAChR (Rattus norvegicus, UniProt Q05941); assay: Competition binding vs 500 pM [3H]EB, stably transfected HEK cells
α3β4 nAChR [8] = target: T4, α3β4 nAChR (Rattus norvegicus, UniProt P04757+P12392); assay: as above; conditions: for Selectivity ratio α3β4/α7: ratio of Ki in stably transfected cells
α4β4 nAChR = α4β4 nAChR (Rattus norvegicus, UniProt P09483+P12392); assay: as above
[9] = tested on: α4β2* nAChRs from rat forebrain tissue (FB); conditions: cited from earlier work
α7 nAChR [10] = target: T3, α7 nAChR; conditions: read-out: Ki α7; added for comparison; ref [24]; cited from earlier work
α4β2 nAChR [11] = target: T1, α4β2 nAChR; conditions: added only for comparison; ref [24]; cited from earlier work
α3β4 nAChR [12] = target: T4, α3β4 nAChR; conditions: cited from earlier work
α2β4 nAChR [13] = target: T2, α2β4 nAChR; conditions: read-out: Ki α2β4; added for comparison; ref [24]; cited from earlier work
nAChRs = nAChRs (Rattus norvegicus, UniProt P09483+P12390); type: binding; conditions: read-out: Ki AVG
[14] = ratio of Ki in stably transfected cells
[15] = read-out: Ki α3β2, vs 500pM [3H]EB, HEK cells, Mean ± SEM of three
[16] = read-out: Ki α2β4, vs 500pM [3H]EB, HEK cells, Mean ± SEM of three
[17] = read-out: Ki α2β2, vs 500pM [3H]EB, HEK cells, Mean ± SEM of three
[18] = read-out: Ki α7, vs 500pM [3H]EB, HEK cells, Mean ± SEM of three
[19] = read-out: Ki α3β4, vs 500pM [3H]EB, HEK cells, Mean ± SEM of three
[20] = read-out: Ki α4β4, vs 500pM [3H]EB, HEK cells, Mean ± SEM of three

SMILES | Selectivity ratio α3β4/α4β2 (α4β2 nAChR [1]; [14]) | Agonist/antagonist function (in words) [2] | Agonist/antagonist function (in words) [4] | EC50 [4] | EC50 (rat α3β4 nAChRs) | Agonist activity (in words) (rat α3β4 nAChRs) | Selectivity ratio α3β4/α4β2*FB [5] | Selectivity ratio α3β4/α7 (α3β4 nAChR [8]) | Ki (α4β2 nAChR [1]) | Ki (α3β2 nAChR; [15]) | Ki (α2β4 nAChR [3]; [16]) | Ki (α2β2 nAChR; [17]) | Ki (nAChRs) | Ki (α7 nAChR [7]; [18]) | Ki (α3β4 nAChR [8]; [19]) | Ki (α4β4 nAChR; [20]) | other results
CN1CCC[C@H]1COc1cccnc1 [A-84543, 3-(1-methyl-2(S)-pyrrolidinylmethoxy)pyridine, reference compound] | 1,357 | full agonists | full agonists | 750 nM | 160 ± 40 µM | partial agonist with low potency | 351.9 | 5.58 | – | – | – | – | – | – | – | – | Selectivity ratio α7/α4β2 (α4β2 nAChR [1]; [14]): 242; Ki (α3β2 nAChR): 12 ± 1 nM; Ki (α2β4 nAChR [3]): 370 ± 40 nM; Emax (rat α3β4 nAChRs; HEK293, read-out: Relative Emax): 37.5 ± 6%; Ki (α2β2 nAChR): 2 ± 0.3 nM; Ki [6]: 5.4 ± 0.6 nM; Ki (α7 nAChR [7]): 340 ± 50 nM; Ki (α3β4 nAChR [8]): 1900 nM; Ki (α4β4 nAChR): 150 ± 10 nM
c1cncc(OC[C@@H]2CCN2)c1 [A-85380, 3-(2(S)-azetidinylmethoxy) pyridine] | – | – | – | – | – | – | – | – | – | – | – | – | – | – | – | – | Selectivity ratio α3β4/α4β2*FB [9]: 312; Ki (α7 nAChR [10]): 420 ± 50 nM; Selectivity ratio α3β4/α4β2 (α4β2 nAChR [11]): 557.14; Selectivity ratio α7/α4β2 (α4β2 nAChR [11]): 3,000; Selectivity ratio α3β4/α7 (α3β4 nAChR [12]): 0.18; Ki (α2β4 nAChR [13]): 18 ± 4 nM
c1cncc(OC[C@@H]2CCCN2)c1 [H-11MNH] | 538.5 | full agonists | full agonists | 4000 nM | 24 ± 1 µM | full agonist with high potency; also recorded: full agonist with high efficacy | 295.8 | 3.23 | 0.00039 ± 5e-05 µM | 1.3 ± 0.3 nM | 76 ± 12 nM | 0.35 ± 0.09 nM | 0.00046 µM | 65 ± 5 nM | 210 ± 40 nM | 31 ± 6 nM | Relative Emax (rat α3β4 nAChRs): 83.33% and 83.3 ± 3%; Selectivity ratio α3β4/α4β2*FB ([5]; listed as H-11NMH): ~ 300
c1ccc(OCC2CCCN2)nc1 (centres unmarked) [H-11ONH] | – | – | – | – | – | – | – | – | > 10 µM | > 10000 nM | > 10000 nM | > 10000 nM | 21.8 µM | > 10000 nM | > 10000 nM | > 10000 nM | –
CN1CCCC1COc1ccccn1 (centres unmarked) [H-11ONM] | – | – | – | – | – | – | – | – | > 10 µM | > 10000 nM | > 10000 nM | > 10000 nM | 60.3 µM | > 10000 nM | > 10000 nM | > 10000 nM | –
c1cc(OC[C@@H]2CCCN2)ccn1 [H-11PNH] | – | – | – | – | – | – | – | – | > 10 µM | > 10000 nM | > 10000 nM | > 10000 nM | 59.2 µM | > 10000 nM | > 10000 nM | > 10000 nM | –
